From PMC2910156 (Journal of neurochemistry, 2010)

Target: α-synuclein (E46K α-syn) (Homo sapiens, UniProt P37840, E46K)
Test: Thioflavin T fibrillization assay with purified E46K α-syn
Format: biochemical

## O=c1cc(-c2ccccc2)oc2cc(O)c(O)c(O)c12 [Baicalein]
  IC50: ~10 µM
